How the values were obtained:
[1] = tested on: Aspergillus parasiticus NRRL2999; type: cell-based
[2] = tested on: dipeptidyl aminopeptidase II (DPP II); details: stated as known; cited from earlier work
[3] = tested on: Aspergillus parasiticus NRRL2999; type: cell-based; remark: listed apart in the source
[4] = tested on: aflatoxin-producing microorganism; details: Non-Patent Literature 3; cited from earlier work

Compound: NCC[C@H](N)C(=O)N1CCCCC1 [Dab-Pip]
- Inhibition of growth of aflatoxin-producing microorganism [1]: not observed
- DPPII inhibition (known) [2]: strong inhibitor
- Inhibition of aflatoxin production [3]: neither Orn-Pip nor Dab-Pip inhibited aflatoxin production

Compound: NCCCC(N)C(=O)N1CCCCC1 (stereo not drawn) [Orn-Pip]
- Inhibition of growth of aflatoxin-producing microorganism [1]: not observed
- DPPII inhibition (known) [2]: strong inhibitor
- Inhibition of aflatoxin production [3]: neither Orn-Pip nor Dab-Pip inhibited aflatoxin production

Compound: COP(=O)(OC)OC=C(Cl)Cl [dichlorvos]
- Aflatoxin production inhibitory activity [4]: weak

Compound: Cc1cccc2sc3nncn3c12 [tricyclazole]
- Aflatoxin production inhibitory activity [4]: weak

Compound: dioctatin
- DPPII inhibition (known) [2]: inhibition of dipeptidyl aminopeptidase II

Source: US8383547B2 (priority 2005, dated 2013)
